From US9790221B2, “Heteroaryl compounds as IRAK inhibitors and uses thereof” (Merck Patent GmbH, priority 2014, dated 2017)
Read-outs that look alike come from different tables or passages of the source.

Assays:
[1] = biological target: IRAK1 (His-TEV-IRAK1 (194-712)) (Homo sapiens (Human), UniProt P51617); assay: IRAK1 enzymatic assay; type: biochemical
In short: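 Recombinant His-TEV-IRAK1 (194-712), 15 ng/well, autophosphorylation with 1 μM ATP plus [33P]ATP, 3 h at 30° C in Hepes pH 7.0 buffer with MgCl2, DTT, EGTA, BSA and Triton; compounds from 20 µM to 1 nM. The reaction was stopped with EDTA, and radioactivity was counted in streptavidin FlashPlates.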

[2] = biological target: IRAK4 (Homo sapiens (Human), UniProt Q9NWZ3); assay: IRAK4 enzymatic assay; type: biochemical
Sequence of IRAK4 (Q9NWZ3 whole entry): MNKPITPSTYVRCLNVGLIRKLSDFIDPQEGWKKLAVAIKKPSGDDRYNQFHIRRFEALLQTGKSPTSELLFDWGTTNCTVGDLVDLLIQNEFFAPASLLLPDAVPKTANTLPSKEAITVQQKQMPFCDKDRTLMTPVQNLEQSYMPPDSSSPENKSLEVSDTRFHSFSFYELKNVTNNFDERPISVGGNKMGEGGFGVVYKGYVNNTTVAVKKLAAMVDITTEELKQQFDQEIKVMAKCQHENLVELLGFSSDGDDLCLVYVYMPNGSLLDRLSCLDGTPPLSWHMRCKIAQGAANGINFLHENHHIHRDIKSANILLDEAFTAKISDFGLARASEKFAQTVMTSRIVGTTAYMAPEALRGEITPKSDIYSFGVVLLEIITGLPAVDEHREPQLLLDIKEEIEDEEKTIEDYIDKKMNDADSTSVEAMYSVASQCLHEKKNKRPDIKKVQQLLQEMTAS
In short: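 Recombinant His-TEV-IRAK4 (20 ng/well) phosphorylating biotinylated STK1 peptide (300 nM) with 2 μM ATP plus [^33P]ATP, 3 h at 30° C in pH 7.0 Hepes buffer with Mg2+ and Mn2+. Compounds 20 µM to 1 nM; EDTA stop, radioactivity captured on streptavidin FlashPlates.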

[3] = test system: TLR7 induced IL-6 secretion in human mononuclear cells (PBMC's); assay: TLR7 induced IL-6 in human PBMC's; type: cell-based; details: read-out: TLR7 induced IL-6 secretion in hPBMC's (IC50)
In short: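 Fresh or frozen healthy-donor PBMCs preincubated 30 min at 37° C. with compound (25 uM to 0.4 nM; vehicle 0.25% DMSO) in RPMI/10% HI-FBS. Stimulated with TLR7 ligand (2 uM) for 16-18 h at 37° C.; supernatant IL-6 measured by AlphaLISA.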

Sequence of IRAK1 (His-TEV-IRAK1 (194-712)) (P51617 194-712): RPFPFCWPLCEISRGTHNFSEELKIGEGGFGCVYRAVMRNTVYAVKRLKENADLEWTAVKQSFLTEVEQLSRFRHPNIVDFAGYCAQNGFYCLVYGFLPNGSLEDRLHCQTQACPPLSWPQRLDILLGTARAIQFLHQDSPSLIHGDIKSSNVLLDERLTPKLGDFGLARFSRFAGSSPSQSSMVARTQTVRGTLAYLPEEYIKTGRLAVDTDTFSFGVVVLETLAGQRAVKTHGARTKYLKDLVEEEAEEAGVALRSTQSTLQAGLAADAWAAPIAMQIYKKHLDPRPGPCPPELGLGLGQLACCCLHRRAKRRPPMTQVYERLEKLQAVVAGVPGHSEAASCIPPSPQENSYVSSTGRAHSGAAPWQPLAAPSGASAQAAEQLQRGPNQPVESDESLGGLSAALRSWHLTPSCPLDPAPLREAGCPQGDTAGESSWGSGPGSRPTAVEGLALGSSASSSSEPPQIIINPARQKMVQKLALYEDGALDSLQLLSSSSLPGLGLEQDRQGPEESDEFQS

Row | Compound | IC50 [1] | IC50 [2] | IC50 ([3]; Homo sapiens, PBMC) | IC50 [3]
1 | Cn1cc(-c2cccc(-c3ncc(-c4cnn(C)c4)c(NCCS(N)(=O)=O)n3)c2)cn1 [Example 278] | < 100 nM | < 100 nM | 100 to 1000 nM | –
2 | Cn1cc(-c2cccc(-c3ncc(-c4cnn(C)c4)c(N[C@H]4CC[C@H](C(=O)O)CC4)n3)c2)cn1 [Example 279] | > 5000 nM | 100 to 1000 nM | > 5000 nM | –
3 | Cn1cc(-c2cccc(-c3ncc(-c4cnn(C)c4)c(N4CC[C@H](F)[C@@H](O)C4)n3)c2)cn1 [Example 280] | 100 to 1000 nM | < 100 nM | 1000 to 5000 nM | –
4 | Cn1cc(-c2cccc(-c3ncc(-c4cnn(C)c4)c(NCCCS(C)(=N)=O)n3)c2)cn1 (stereo not drawn) [Example 282] | 1000 to 5000 nM | 100 to 1000 nM | > 5000 nM | –
5 | Cn1cc(-c2cccc(-c3ncc(-c4cnn(C)c4)c(N4C[C@H](N)CC(F)(F)C4)n3)c2)cn1 [Example 283, (R)-5,5-Difluoro-1-{5-(1-methyl-1H-pyrazol-4-yl)-2-[3-(1-methyl-1H-pyrazol-4-yl)-phenyl]-pyrimidin-4-yl}-piperidin-3-ylamine] | 1000 to 5000 nM | 1000 to 5000 nM | 1000 to 5000 nM | –
6 | Cn1cc(-c2cccc(-c3ncc(-c4cnn(C)c4)c(N4C[C@@H](N)CC(F)(F)C4)n3)c2)cn1 [Example 284, (S)-5,5-Difluoro-1-{5-(1-methyl-1H-pyrazol-4-yl)-2-[3-(1-methyl-1H-pyrazol-4-yl)-phenyl]-pyrimidin-4-yl}-piperidin-3-ylamine] | 1000 to 5000 nM | < 100 nM | 100 to 1000 nM | –
7 | Cn1cc(-c2cccc(-c3ncc(-c4cnn(C)c4)c(N[C@@H]4CCCC(F)(F)[C@H]4O)n3)c2)cn1 [Example 287, (1S,6R)-2,2-Difluoro-6-{5-(1-methyl-1H-pyrazol-4-yl)-2-[3-(1-methyl-1H-pyrazol-4-yl)-phenyl]-pyrimidin-4-ylamino}-cyclohexanol] | 100 to 1000 nM | < 100 nM | 1000 to 5000 nM | –
8 | Cn1cc(-c2cccc(-c3ncc(-c4cnn(C)c4)c(N[C@H]4CCCC[C@@H](O)[C@H]4O)n3)c2)cn1 [Example 288, (1R,2S,3S)-3-{5-(1-Methyl-1H-pyrazol-4-yl)-2-[3-(1-methyl-1H-pyrazol-4-yl)-phenyl]-pyrimidin-4-ylamino}-cycloheptane-1,2-diol] | < 100 nM | < 100 nM | – | < 100 nM
9 | Cn1cc(-c2cccc(-c3ncc(-c4cnn(C)c4)c(N[C@@H]4CCCC[C@H](O)[C@@H]4O)n3)c2)cn1 [Example 289, (1S,2R,3R)-3-{5-(1-Methyl-1H-pyrazol-4-yl)-2-[3-(1-methyl-1H-pyrazol-4-yl)-phenyl]-pyrimidin-4-ylamino}-cycloheptane-1,2-diol] | > 5000 nM | < 100 nM | 100 to 1000 nM | –
